Test results as given in patent US4452741A, “A-39183 Antibiotics and process for production thereof” (Eli Lilly and Company, priority 1983, dated 1984).
In brackets after ≈: the same amount, converted by molar mass. Where two headings read alike, the source gives them in different places.

Legend:
[1] = tested on: Staphylococcus aureus 3055; test: agar-dilution MIC; assay type: cell-based
Text: (§1) The agar-dilution procedure described by the International Collaborative Study (ICS) group was used to determine MIC values.

[2] = tested on: Streptococcus faecalis X66; test: agar-dilution MIC; assay type: cell-based; settings: Enterococcus faecalis
[3] = tested on: Staphylococcus aureus 3074; test: agar-dilution MIC; assay type: cell-based; settings: agar-dilution method, benzylpenicillin-resistant
[4] = tested on: Staphylococcus aureus 3055; test: disc-plate zone of inhibition; assay type: cell-based; settings: benzylpenicillin-susceptible, 6 mm discs, read-out: Zone Diameter
Experimental: (§2) Agar plates, inoculated with the test organism, were used; 6 mm. discs (0.02 ml. capacity) were saturated from log 2 dilutions of the antibiotic solution. Disc content was 1/5 or 1/50 of the concentration of the solution used, i.e., disc content of […] 30 μg. was obtained from a solution of 1500 μg./ml. concentration.

[5] = tested on: Staphylococcus aureus 3074; test: disc-plate zone of inhibition; assay type: cell-based; settings: benzylpenicillin-resistant, 6 mm discs, read-out: Zone Diameter
Experimental: as §2

[6] = tested on: Staphylococcus aureus 3130; test: disc-plate zone of inhibition; assay type: cell-based; settings: benzylpenicillin-resistant, methicillin-resistant, 6 mm discs, read-out: Zone Diameter
Experimental: as §2

[7] = tested on: Streptococcus pneumoniae Park I; test: disc-plate zone of inhibition; assay type: cell-based; settings: 6 mm discs, read-out: Zone Diameter
Experimental: as §2

[8] = tested on: Streptococcus pyogenes C203; test: disc-plate zone of inhibition; assay type: cell-based; settings: 6 mm discs, read-out: Zone Diameter
Experimental: as §2

[9] = tested on: Streptococcus sp. (Group D) 9960; test: disc-plate zone of inhibition; assay type: cell-based; settings: 6 mm discs, read-out: Zone Diameter
Experimental: as §2

[10] = tested on: Actinomyces israelii W855; test: MIC, anaerobic bacteria; assay type: cell-based
[11] = tested on: Clostridium perfringens 81; test: microbe, parasite or virus in culture; assay type: cell-based
[12] = tested on: Bacteroides thetaiotaomicron 1438; test: MIC, anaerobic bacteria; assay type: cell-based
Text: as §1

[13] = tested on: Clostridium septicum 1128; test: MIC, anaerobic bacteria; assay type: cell-based
Text: as §1

[14] = tested on: Eubacterium aerofaciens 1235; test: MIC, anaerobic bacteria; assay type: cell-based; settings: Collinsella aerofaciens
[15] = tested on: Peptococcus asaccharolyticus 1302; test: MIC, anaerobic bacteria; assay type: cell-based; settings: Peptoniphilus asaccharolyticus
[16] = tested on: Peptococcus prevoti 1281; test: MIC, anaerobic bacteria; assay type: cell-based
[17] = tested on: Peptostreptococcus anaerobius 1428; test: MIC, anaerobic bacteria; assay type: cell-based
[18] = tested on: Peptostreptococcus intermedius 1264; test: MIC, anaerobic bacteria; assay type: cell-based
[19] = tested on: Propionibacterium acnes 79; test: MIC, anaerobic bacteria; assay type: cell-based; settings: Cutibacterium acnes
[20] = tested on: Bacteroides fragilis 111; test: MIC, anaerobic bacteria; assay type: cell-based
[21] = tested on: Bacteroides fragilis 1877; test: MIC, anaerobic bacteria; assay type: cell-based
[22] = tested on: Bacteroides fragilis 1936B; test: MIC, anaerobic bacteria; assay type: cell-based
[23] = tested on: Bacteroides melaninogenicus 1856/28; test: MIC, anaerobic bacteria; assay type: cell-based; settings: Prevotella intermedia
[24] = tested on: Bacteroides melaninogenicus 2736; test: MIC, anaerobic bacteria; assay type: cell-based
[25] = tested on: Bacteroides vulgatis 1211; test: MIC, anaerobic bacteria; assay type: cell-based
[26] = tested on: Bacteroides corrodens 1874; test: MIC, anaerobic bacteria; assay type: cell-based
[27] = tested on: Fusobacterium symbiosum 1470; test: MIC, anaerobic bacteria; assay type: cell-based
[28] = tested on: Fusobacterium necrophorum 6054A; test: MIC, anaerobic bacteria; assay type: cell-based
[29] = tested on: Bacteroides fragilis 103; test: MIC, anaerobic bacteria; assay type: cell-based
[30] = tested on: Bacteroides fragilis 104; test: MIC, anaerobic bacteria; assay type: cell-based
[31] = tested on: Bacteroides fragilis 106; test: MIC, anaerobic bacteria; assay type: cell-based
[32] = tested on: Bacteroides fragilis 107; test: MIC, anaerobic bacteria; assay type: cell-based
[33] = tested on: Bacteroides fragilis 108; test: MIC, anaerobic bacteria; assay type: cell-based
[34] = tested on: Bacteroides fragilis 110; test: MIC, anaerobic bacteria; assay type: cell-based
[35] = tested on: Bacteroides fragilis 112; test: MIC, anaerobic bacteria; assay type: cell-based
[36] = tested on: Bacteroides fragilis 113; test: MIC, anaerobic bacteria; assay type: cell-based
[37] = tested on: Bacteroides fragilis 1451; test: MIC, anaerobic bacteria; assay type: cell-based
[38] = tested on: Bacteroides fragilis 1470; test: MIC, anaerobic bacteria; assay type: cell-based
[39] = tested on: Bacteroides fragilis 2; test: MIC, anaerobic bacteria; assay type: cell-based
[40] = tested on: Bacteroides fragilis 9; test: MIC, anaerobic bacteria; assay type: cell-based
[41] = tested on: Bacteroides fragilis 62; test: MIC, anaerobic bacteria; assay type: cell-based
[42] = tested on: Bacteroides vulgatis 1563; test: MIC, anaerobic bacteria; assay type: cell-based
[43] = tested on: Bacteroides thetaiotaomicron 1900A; test: MIC, anaerobic bacteria; assay type: cell-based
[44] = electrometric titration; assay type: physicochemical; settings: 66% dimethylformamide in water
Experimental: Antibiotic A-39183 factor A is a yellow, crystalline solid, having a molecular weight of 598.58, as determined by mass spectrometry, and an approximate elemental analysis as follows: 67.95% carbon, 5.20% hydrogen, and 26.79% oxygen. […] A-39183 factor A has the following specific rotation: [α]D^25 +18.9° (c 9.52, trifluoroethanol).
Antibiotic A-39183 factor b is a red, crystalline solid having a molecular weight of 580, as determined by mass spectrometry, and an approximate elemental analysis as follows: 70.56% carbon, 4.97% hydrogen, and 24.57% oxygen. […] A-39183 factor B has the following specific rotation: [α]D^25 +576.9° (c 8.85, trifluoroethanol).

[45] = solubility; assay type: physicochemical; settings: organic solvents
[46] = Bacteroides thetaiotaomicron, 1438, Bacteroides thetaiotaomicron 1438, first listing, read-out: MIC
[47] = Bacteroides fragilis, 111, Bacteroides fragilis 111, first listing
[48] = Bacteroides fragilis, 1877, Bacteroides fragilis 1877, first listing
[49] = Eikenella corrodens, 1874, Bacteroides corrodens 1874, first listing

CC(=O)c1c(C)cc(O)c2c(O)c3c(O)cccc3c(-c3c4c(c(O)c5c(O)cccc35)C(=O)CC(C)(O)C4C(C)=O)c12 (centres unmarked) [A-39183 factor B]
MIC [1]: 0.5 µg/mL (≈ 0.861 µM)
MIC [2]: 4 µg/mL (≈ 6.89 µM)
MIC [3]: 4 µg/mL (≈ 6.89 µM)
zone of inhibition at 30 µg/disc ([4]; 30 μg/disc): 0 mm
zone of inhibition at 300 µg/disc ([4]; 300 μg/disc): 0 mm
zone of inhibition at 30 µg/disc ([5]; 30 μg/disc): 14.8 mm
zone of inhibition at 300 µg/disc ([5]; 300 μg/disc): 15.8 mm
zone of inhibition at 30 µg/disc ([6]; 30 μg/disc): 13.4 mm
zone of inhibition at 300 µg/disc ([6]; 300 μg/disc): 14 mm
zone of inhibition at 30 µg/disc ([7]; 30 μg/disc): 0 mm
zone of inhibition at 300 µg/disc ([7]; 300 μg/disc): 9.1 mm
zone of inhibition at 30 µg/disc ([8]; 30 μg/disc): 8 mm
zone of inhibition at 300 µg/disc ([8]; 300 μg/disc): 10 mm
zone of inhibition at 30 µg/disc ([9]; 30 μg/disc): 0 mm
zone of inhibition at 300 µg/disc ([9]; 300 μg/disc): 9.1 mm
MIC [10]: ≤ 0.5 µg/mL
MIC [11]: 8 µg/mL (≈ 13.8 µM)
MIC [12, 46]: 16 µg/mL (≈ 27.6 µM)
MIC ([12]; Bacteroides thetaiotaomicron, 1438, Bacteroides thetaiotaomicron 1438, second listing): 4 µg/mL (≈ 6.89 µM)
MIC [13]: 2 µg/mL (≈ 3.44 µM)
MIC [14]: 8 µg/mL (≈ 13.8 µM)
MIC [15]: 32 µg/mL (≈ 55.1 µM)
MIC [16]: 8 µg/mL (≈ 13.8 µM)
MIC [17]: 8 µg/mL (≈ 13.8 µM)
MIC [18]: 2 µg/mL (≈ 3.44 µM)
MIC [19]: 2 µg/mL (≈ 3.44 µM)
MIC [20, 47]: ≤ 0.5 µg/mL
MIC ([20]; Bacteroides fragilis, 111, Bacteroides fragilis 111, second listing): 4 µg/mL (≈ 6.89 µM)
MIC [21, 48]: 1 µg/mL (≈ 1.72 µM)
MIC ([21]; Bacteroides fragilis, 1877, Bacteroides fragilis 1877, second listing): 4 µg/mL (≈ 6.89 µM)
MIC [22]: 2 µg/mL (≈ 3.44 µM)
MIC [23]: > 128 µg/mL
MIC [24]: 4 µg/mL (≈ 6.89 µM)
MIC [25]: 2 µg/mL (≈ 3.44 µM)
MIC [26, 49]: 1 µg/mL (≈ 1.72 µM)
MIC ([26]; Eikenella corrodens, 1874, Bacteroides corrodens 1874, second listing): 4 µg/mL (≈ 6.89 µM)
MIC [27]: 8 µg/mL (≈ 13.8 µM)
MIC [28]: ≤ 0.5 µg/mL
MIC [29]: 4 µg/mL (≈ 6.89 µM)
MIC [30]: 4 µg/mL (≈ 6.89 µM)
MIC [31]: 4 µg/mL (≈ 6.89 µM)
MIC [32]: 4 µg/mL (≈ 6.89 µM)
MIC [33]: 4 µg/mL (≈ 6.89 µM)
MIC [34]: 4 µg/mL (≈ 6.89 µM)
MIC [35]: 4 µg/mL (≈ 6.89 µM)
MIC [36]: 4 µg/mL (≈ 6.89 µM)
MIC [37]: 4 µg/mL (≈ 6.89 µM)
MIC [38]: 4 µg/mL (≈ 6.89 µM)
MIC [39]: 2 µg/mL (≈ 3.44 µM)
MIC [40]: 4 µg/mL (≈ 6.89 µM)
MIC [41]: 1 µg/mL (≈ 1.72 µM)
MIC [42]: 8 µg/mL (≈ 13.8 µM)
MIC [43]: 16 µg/mL (≈ 27.6 µM)
pKa ([44]; pH 4.03, 66% dimethylformamide in water, initial pH 4.03, read-out: pKa (first titratable group)): ~6.68
pKa ([44]; pH 4.03, 66% dimethylformamide in water, initial pH 4.03, read-out: pKa (second titratable group)): ~8.42
solubility (soluble) [45]: soluble in the same solvents as factor A

CC(=O)C1c2c(c(O)c3c(O)cccc3c2-c2c3c(c(O)c4c(O)cccc24)C(=O)CC(C)(O)C3C(C)=O)C(=O)CC1(C)O (centres unmarked) [A-39183 factor A]
MIC ([1]; agar-dilution method, benzylpenicillin-susceptible, read-out: MIC): 32 µg/mL (≈ 53.5 µM)
MIC ([2]; agar-dilution method, read-out: MIC): 32 µg/mL (≈ 53.5 µM)
MIC [10]: ≤ 0.5 µg/mL
MIC [11]: 32 µg/mL (≈ 53.5 µM)
MIC [12, 46]: 16 µg/mL (≈ 26.7 µM)
MIC [13]: 16 µg/mL (≈ 26.7 µM)
MIC [14]: 32 µg/mL (≈ 53.5 µM)
MIC [15]: 64 µg/mL (≈ 107 µM)
MIC [16]: 32 µg/mL (≈ 53.5 µM)
MIC [17]: 64 µg/mL (≈ 107 µM)
MIC [18]: 32 µg/mL (≈ 53.5 µM)
MIC [19]: 32 µg/mL (≈ 53.5 µM)
MIC [20, 47]: 32 µg/mL (≈ 53.5 µM)
MIC [21, 48]: 32 µg/mL (≈ 53.5 µM)
MIC [22]: 32 µg/mL (≈ 53.5 µM)
MIC [23]: > 128 µg/mL
MIC [24]: 16 µg/mL (≈ 26.7 µM)
MIC [25]: 32 µg/mL (≈ 53.5 µM)
MIC [26, 49]: 32 µg/mL (≈ 53.5 µM)
MIC [27]: 64 µg/mL (≈ 107 µM)
MIC [28]: 16 µg/mL (≈ 26.7 µM)
pKa ([44]; pH 4.81, 66% dimethylformamide in water, initial pH 4.81, read-out: pKa (first titratable group)): ~6.75
pKa ([44]; pH 4.81, 66% dimethylformamide in water, initial pH 4.81, read-out: pKa (second titratable group)): ~8.43
solubility (soluble) [45]: soluble in acetone, ethyl acetate, chloroform, dimethylformamide, dimethyl sulfoxide, and trifluoroethanol
